Test system: 695427-040-R-J1-PDC complex spheroids, viability percent T/C
Assay: Anticancer human tumor 695427-040-R-J1-PDC patient-derived colon adenocarcinoma cell line growth inhibition [GQUAD]
Conditions: for IC50: curve of first compound; for viability, T/C: stronger effect = lower value
From the text: DNA G-quadruplex Stabilizer Agents in Combinations in Complex Spheroids
A high-throughput screen of multi-cell type tumor spheroids was designed to identify active combinations of DNA G-quadruplex stabilizer agents and targeted small molecules. Complex spheroids include a stromal component modeled by human endothelial cells (HUVEC) and fibroblasts modeled by human mesenchymal stem cells (MSCs). The concentration ranges selected for each drug and investigational agent were based upon clinically achievable concentrations if the clinical Cmax of the agent was known.
Compounds. The drugs and investigational agents: pidnarulex (CX-5461; NSC782164), APTO-253 (NSC789042), BRACO-19 (NSC847499), peposertib (NSC802822), ceralasertib (NSC780249), elimusertib (NSC800525), camonsertib (NSC841442), AZD-1390 (NSC803789), olaparib (NSC753686), talazoparib (NSC767125), ART-558 (NSC835418), sotorasib (NSC818433), MRTX-1133 (NSC836407), SN-38 (NSC673596), topotecan (NSC609699), etoposide (NSC141540), doxorubicin (NSC123127), gemcitabine (NSC613327), 5-fluorouracil (NSC19893), paclitaxel (NSC125973), vemurafenib (NSC761431), panobinostat (NSC761190), R-306465 (JNJ-16241199; NSC773264), adavosertib (NSC754352), TP-3654 (NSC805149), carboplatin (NSC241240), KSQ-4279 (NSC840948), and staurosporine (NSC755774) were obtained from the National Cancer Institute (NCI) Developmental Therapeutics Program Chemical Repository (34). The FDA-approved anticancer drug set is available from the NCI Developmental Therapeutics Program. […] The stock solutions were prepared in dimethyl sulfoxide (DMSO, Sigma-Aldrich, St. Louis, MO, cat. D2650) at 800-fold the tested concentration and stored at -70 degrees C prior to their use. All drugs and investigational agents were tested over a range starting from a high concentration at or near the clinical Cmax and decreasing in half-log increments. If the clinical Cmax for an agent had not been determined, the highest concentration tested was 10 microM.
2.3 Cell Culture. All cells were maintained in an incubator at 37 degrees C and 5% CO2 with 95% humidity. The PDC lines were cultured according to standard operating procedures established by the NCI PDMR. All PDCs were thawed and cultured in Matrigel-coated flasks prepared with a working solution of 1X Ham's F-12 nutrient mix, without supplementation (Invitrogen, cat. 11765054), 100 U/mL penicillin-streptomycin (Invitrogen, cat. 15140122), and 2.5% Matrigel (Corning Inc., cat. 354248) for the first three passages. The 857933-349-R-J2-PDC line was cultured in 6C/Colon 1B media, which includes advanced DMEM/F-12 (Thermo Fisher Scientific, cat. 12634028), 10 mM HEPES (Thermo Fisher Scientific, cat. 15630080), 1X GlutaMAX supplement (Thermo Fisher Scientific, cat. 35050061), 0.1 mg/mL primocin (InvivoGen, cat. ant-pm-2), 10% defined fetal bovine serum, heat inactivated (HyClone Laboratories Inc., cat. SH30070.03HI), 50% L-WRN conditioned media (ATCC, cat. CRL-3276), 1.25 mM N-Acetyl-L-cysteine (Sigma-Aldrich, cat. A9165), 10 mM nicotinamide (Sigma-Aldrich, cat. N0636), 1X B-27 supplement (Thermo Fisher Scientific, cat. 17504044), 1X N-2 supplement (Thermo Fisher Scientific, cat. 17502048), 10 microM Y-27632 dihydrochloride (Tocris Bioscience, cat. 1254), and 50 ng/mL human EGF recombinant protein (Thermo Fisher Scientific, cat. PHG0311). The 485176-168-R4-J1-PDC line was cultured in Panc media, which includes all 6C/Colon 1B media components plus 100 ng/mL human FGF-10 (Thermo Fisher Scientific, cat. 100-26), 500 nM SB-431542 (Selleckchem, cat. S1067), and gastrin (Tocris, cat. 3006).
[…]

[1] = second compound 0.0316 µM, first compound 0.0316 µM
[2] = second compound 0.0316 µM, first compound 0.1 µM
[3] = second compound 0.0316 µM, first compound 0.316 µM
[4] = second compound 0.0316 µM, first compound 1 µM
[5] = second compound 0.0316 µM, first compound 3.16 µM
[6] = second compound 0.0316 µM, first compound 10 µM
[7] = second compound 0.1 µM, first compound 0.0316 µM
[8] = second compound 0.1 µM, first compound 0.1 µM
[9] = second compound 0.1 µM, first compound 0.316 µM
[10] = second compound 0.1 µM, first compound 1 µM
[11] = second compound 0.1 µM, first compound 3.16 µM
[12] = second compound 0.1 µM, first compound 10 µM
[13] = second compound 0.316 µM, first compound 0.0316 µM
[14] = second compound 0.316 µM, first compound 0.1 µM
[15] = second compound 0.316 µM, first compound 0.316 µM
[16] = second compound 0.316 µM, first compound 1 µM
[17] = second compound 0.316 µM, first compound 3.16 µM
[18] = second compound 0.316 µM, first compound 10 µM
[19] = second compound 1 µM, first compound 0.0316 µM
[20] = second compound 1 µM, first compound 0.1 µM
[21] = second compound 1 µM, first compound 0.316 µM
[22] = second compound 1 µM, first compound 1 µM
[23] = second compound 1 µM, first compound 3.16 µM
[24] = second compound 1 µM, first compound 10 µM
[25] = second compound 3.16 µM, first compound 0.0316 µM
[26] = second compound 3.16 µM, first compound 0.1 µM
[27] = second compound 3.16 µM, first compound 0.316 µM
[28] = second compound 3.16 µM, first compound 1 µM
[29] = second compound 3.16 µM, first compound 3.16 µM
[30] = second compound 3.16 µM, first compound 10 µM
[31] = second compound 10 µM, first compound 0.0316 µM
[32] = second compound 10 µM, first compound 0.1 µM
[33] = second compound 10 µM, first compound 0.316 µM
[34] = second compound 10 µM, first compound 1 µM
[35] = second compound 10 µM, first compound 3.16 µM
[36] = second compound 10 µM, first compound 10 µM
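Further: spheroids exposed to compounds for seven days before readout.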

## CC1COCCN1c1cc(-c2ccnn2C)c2ccnc(-c3ccn[nH]3)c2n1 (centres undefined) + CN(C)c1ccc(Nc2c3ccc(NC(=O)CCN4CCCC4)cc3nc3cc(NC(=O)CCN4CCCC4)ccc23)cc1
Second compound 0.0316 µM
  IC50: 1250 nM
Second compound 0.1 µM
  IC50: 1360 nM
Second compound 0.316 µM
  IC50: 1240 nM
Second compound 1 µM
  IC50: 942 nM
Second compound 3.16 µM
  IC50: 749 nM
Second compound 10 µM
  IC50: 454 nM
[1]
  viability, T/C: 95.2%
[2]
  viability, T/C: 78.8%
[3]
  viability, T/C: 63%
[4]
  viability, T/C: 51%
[5]
  viability, T/C: 44.9%
[6]
  viability, T/C: 39.4%
[7]
  viability, T/C: 100%
[8]
  viability, T/C: 75.9%
[9]
  viability, T/C: 63.9%
[10]
  viability, T/C: 52%
[11]
  viability, T/C: 45.3%
[12]
  viability, T/C: 39.1%
[13]
  viability, T/C: 87.7%
[14]
  viability, T/C: 76.3%
[15]
  viability, T/C: 56.3%
[16]
  viability, T/C: 49.3%
[17]
  viability, T/C: 46.8%
[18]
  viability, T/C: 42.4%
[19]
  viability, T/C: 96.7%
[20]
  viability, T/C: 81.9%
[21]
  viability, T/C: 60.3%
[22]
  viability, T/C: 49.7%
[23]
  viability, T/C: 45.9%
[24]
  viability, T/C: 39.1%
[25]
  viability, T/C: 89.3%
[26]
  viability, T/C: 74.5%
[27]
  viability, T/C: 55.5%
[28]
  viability, T/C: 48.9%
[29]
  viability, T/C: 43.8%
[30]
  viability, T/C: 39.9%
[31]
  viability, T/C: 86%
[32]
  viability, T/C: 66.1%
[33]
  viability, T/C: 50.5%
[34]
  viability, T/C: 46.8%
[35]
  viability, T/C: 40.2%
[36]
  viability, T/C: 37%

## CC1COCCN1c1cc(C2(O)CC3CCC(C2)O3)c2cnn(-c3ccn[nH]3)c2n1 (centres undefined) + CN(C)c1ccc(Nc2c3ccc(NC(=O)CCN4CCCC4)cc3nc3cc(NC(=O)CCN4CCCC4)ccc23)cc1
Second compound 0.0316 µM
  IC50: 2300 nM
Second compound 0.1 µM
  IC50: 2040 nM
Second compound 0.316 µM
  IC50: 2010 nM
Second compound 1 µM
  IC50: 2270 nM
Second compound 3.16 µM
  IC50: 1540 nM
Second compound 10 µM
  IC50: 873 nM
[1]
  viability, T/C: 105%
[2]
  viability, T/C: 79.7%
[3]
  viability, T/C: 73.6%
[4]
  viability, T/C: 55.5%
[5]
  viability, T/C: 48%
[6]
  viability, T/C: 39.6%
[7]
  viability, T/C: 100%
[8]
  viability, T/C: 81.9%
[9]
  viability, T/C: 69.4%
[10]
  viability, T/C: 57.2%
[11]
  viability, T/C: 45.4%
[12]
  viability, T/C: 38.1%
[13]
  viability, T/C: 89.3%
[14]
  viability, T/C: 87.1%
[15]
  viability, T/C: 70.3%
[16]
  viability, T/C: 57.4%
[17]
  viability, T/C: 46.4%
[18]
  viability, T/C: 39%
[19]
  viability, T/C: 91.3%
[20]
  viability, T/C: 80.7%
[21]
  viability, T/C: 67.1%
[22]
  viability, T/C: 53.9%
[23]
  viability, T/C: 50.9%
[24]
  viability, T/C: 38.6%
[25]
  viability, T/C: 81.9%
[26]
  viability, T/C: 78.1%
[27]
  viability, T/C: 69.9%
[28]
  viability, T/C: 51.8%
[29]
  viability, T/C: 46.1%
[30]
  viability, T/C: 37.5%
[31]
  viability, T/C: 83.9%
[32]
  viability, T/C: 78.2%
[33]
  viability, T/C: 66.9%
[34]
  viability, T/C: 46.4%
[35]
  viability, T/C: 41.2%
[36]
  viability, T/C: 35.5%

— PubChem BioAssay AID2060492 (Molecular Pharmacology Branch, DTP, NCI, 2025)
